Source: PubChem BioAssay AID248 (DTP/NCI, 2004)
Several values for one entry are separate records, joined by “and”; a condition that tells them apart may be missing. Identical values can stand only once. Inconclusive results and toxic doses are left out. No stated cut-off is given here; in the data, active means T/C of 150% or more; inactive means T/C below 125%.

Tested on: L1210 leukemia ip in BDF1 mice, survival T/C
Assay: NCI In Vivo Anticancer Drug Screen. Data for tumor model L1210 Leukemia (intraperitoneal) in B6D2F1 (BDF1) mice
Conditions: endpoint: mean survival time, higher = longer survival
In short: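 Each compound was tested against a transplantable tumor grown in mice. The endpoint was survival, with treated animals benchmarked against vehicle controls as a simple ratio.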

[1] = dose: 100.0 mg/kg/injection, schedule: Q01DX001 (ip), vehicle: saline
[2] = dose: 200.0 mg/kg/injection, schedule: Q01DX001 (ip), vehicle: saline
[3] = dose: 400.0 mg/kg/injection, schedule: Q01DX001 (ip), vehicle: saline

Measured: T/C

C(OC[C@H]1CC[C@@H](COCC2CO2)O1)C1CO1 (stereo partly specified)
inactive: [1] 112 % of control | dose: 108.0 mg/kg/injection, schedule: Q01DX007 (ip), vehicle: saline 120 % of control | dose: 178.0 mg/kg/injection, schedule: Q01DX001 (ip), vehicle: saline 106 % of control and 110 % of control | [2] 109 % of control | dose: 267.0 mg/kg/injection, schedule: Q01DX001 (ip), vehicle: saline 114 % of control and 115 % of control | [3] 114 % of control | dose: 600.0 mg/kg/injection, schedule: Q01DX001 (ip), vehicle: saline 98 % of control

CC(=O)Nc1nc(NC(C)=O)c2nc(CCN(C)c3ccc(C(=O)O)cc3)cnc2n1
inactive: dose: 75.0 mg/kg/injection, schedule: Q01DX001 (ip), vehicle: saline 106 % of control | dose: 100.0 mg/kg/injection, schedule: Q04DX003 (ip), vehicle: Klucel (hydroxypropylcellulose) (HPC) 95 % of control | dose: 150.0 mg/kg/injection, schedule: Q01DX001 (ip), vehicle: saline 101 % of control | dose: 200.0 mg/kg/injection, schedule: Q04DX003 (ip), vehicle: Klucel (hydroxypropylcellulose) (HPC) 95 % of control | dose: 300.0 mg/kg/injection, schedule: Q01DX001 (ip), vehicle: saline 101 % of control | dose: 400.0 mg/kg/injection, schedule: Q04DX003 (ip), vehicle: Klucel (hydroxypropylcellulose) (HPC) 100 % of control

CC(=O)C1(C)C(=O)N(c2ccc(C)cc2)C(=O)N1c1ccc(C)cc1 (stereo unspecified)
inactive: [1] 104 % of control | [2] 102 % of control | [3] 102 % of control

CC(=O)N1CCCC2CCc3c([nH]c4ccccc34)C21 (stereo unspecified)
inactive: dose: 75.0 mg/kg/injection, schedule: Q01DX001 (ip), vehicle: other 110 % of control | dose: 150.0 mg/kg/injection, schedule: Q01DX001 (ip), vehicle: other 119 % of control | dose: 300.0 mg/kg/injection, schedule: Q01DX001 (ip), vehicle: other 110 % of control

O=c1c2ccccc2[nH]c2c([N+](=O)[O-])cccc12
inactive: dose: 100.0 mg/kg/injection, schedule: Q01DX009 (ip), vehicle: saline with Tween-80 100 % of control | dose: 200.0 mg/kg/injection, schedule: Q01DX009 (ip), vehicle: saline with Tween-80 99 % of control | dose: 400.0 mg/kg/injection, schedule: Q01DX009 (ip), vehicle: saline with Tween-80 87 % of control

CCCCCc1nc2c(c(=O)n(C)c(=O)n2C)n1C
inactive: dose: 50.0 mg/kg/injection, schedule: Q01DX001 (ip), vehicle: saline 112 % of control | [1] 100 % of control | [2] 102 % of control | [3] 106 % of control

NC(N)=NC1CCCCC1
inactive: dose: 100.0 mg/kg/injection, schedule: Q04DX003 (ip), vehicle: saline 102 % of control | dose: 200.0 mg/kg/injection, schedule: Q04DX003 (ip), vehicle: saline 112 % of control

CC(NC(=O)OCc1ccccc1)C(=O)NC1C(CO)OC(n2cnc3c(N)ncnc32)C1O (stereo unspecified)
inactive: [1] 94 % of control | [2] 103 % of control | [3] 100 % of control

C[N+]1=NN(c2nc[nH]c2C(N)=O)CC1
inactive: dose: 100.0 mg/kg/injection, schedule: Q04DX002 (ip), vehicle: saline 96 % of control | dose: 200.0 mg/kg/injection, schedule: Q04DX002 (ip), vehicle: saline 100 % of control | dose: 400.0 mg/kg/injection, schedule: Q04DX002 (ip), vehicle: saline 115 % of control

CCN(CC)CC(C)(C)/C=N/N=C(N)N
inactive: dose: 15.0 mg/kg/injection, schedule: Q01DX Z (ip), vehicle: saline 98 % of control | dose: 30.0 mg/kg/injection, schedule: Q01DX Z (ip), vehicle: saline 91 % of control | dose: 60.0 mg/kg/injection, schedule: Q01DX Z (ip), vehicle: saline 105 % of control

CC(Cl)CN1Cc2ccccc2CCc2ccccc2C1 (stereo unspecified)
inactive: dose: 25.0 mg/kg/injection, schedule: Q04DX002 (ip), vehicle: Klucel (hydroxypropylcellulose) (HPC) 101 % of control | dose: 50.0 mg/kg/injection, schedule: Q04DX002 (ip), vehicle: Klucel (hydroxypropylcellulose) (HPC) 92 % of control

O=C(Cc1ccccc1)C(Cl)c1ccccc1 (stereo unspecified)
inactive: [1] 94 % of control | [2] 105 % of control

CCCCOC(=O)Cc1cccc2ccccc12
inactive: dose: 222.0 mg/kg/injection, schedule: Q01DX Z (ip), vehicle: methylcellulose (MC) 102 % of control | dose: 333.0 mg/kg/injection, schedule: Q01DX Z (ip), vehicle: methylcellulose (MC) 110 % of control | dose: 500.0 mg/kg/injection, schedule: Q01DX Z (ip), vehicle: methylcellulose (MC) 104 % of control

O=CN1CCCCC1
inactive: [1] 97 % of control | [2] 105 % of control
